We go through 5 molecules from patent publication US5637319A, “Controlled-release preparations” (priority 1995, dated 1997).

The conditions of data set [1]: after sulfasalazine to dogs; J. Pharm. Pharmacol., 1995 in press; cited from earlier work.
A short description of data set [2]: Serum cisplatin concentration after oral administration to rabbits. Type of data set: in vivo, rabbit. The note with it: sustained-release preparation. As for the experimental part:
The effects of the pore number and the amount of gel-forming polymer on the release profiles of cisplatin was confirmed in the in vivo study after oral administration of the preparations to rabbits using a reference preparation, cisplatin solution, at 20 mg/kg. […] The absorption rate of cisplatin is so rapid that the serum peak level appears within 1 hr.
In case of preparations of which drug release mechanism is based on the intestinal pressure, drug release profiles of the preparations in Examples 4, 5, 6, 7 and 8 cannot be measured by in vitro release experiments. In addition, in the case of sustained-release preparations in Examples 9, 10 and 11, the long-acting efficiency must be confirmed in the in vivo animal study after oral administration. Therefore, in vivo pharmacokinetics study was performed using beagle dogs and rabbits. In the in vivo study, the preparations of the Examples except examples 6, 10 and 11 were administered to dogs and rabbits, respectively. […] These plasma and serum samples were immediately frozen in a deep freezer at -20° C. until analyzed.
Plasma 5ASA and 5-FU concentrations were measured by an HPLC method after extraction of the drug from the plasma sample. The serum cisplatin level was determined by analyzing for platinum by atomic absorption spectrophotometry. The plasma calcitonin level was determined by an ELISA method.

Data set [3] is described as follows: Release study of cisplatin capsules with different pore number and amount of gel-forming polymer (FIGS. 1a-c, 2a-c). Type of data set: physicochemical. The text has this:
The release rate of extremely hydrophilic low-molecular weight drug such as cisplatin from the sustained-release preparation is affected by the following three factors; (1) pore number made on the water-insoluble polymer, (2) pore size and (3) amount of gel-forming material inside the preparation. From the standpoint of mechanical operation of opening many uniform pores, the pore size was fixed to be 800 μm. Under the fixed pore size condition, the effects of the pore number was at first examined and the release patterns of cisplatin from the preparations are shown in FIGS. 1a, b and c. […] The release study data are summarized with respect to the effect of the amount of gel-forming polymer and the results are shown in FIGS. 2a, b and c.
The test was performed according to the procedure of the paddle method (JPXII). A dissolution media employed were the 1st solution (JPXII, pH 1.2) and the 2nd solution (JPXII, pH 6.8). Nine hundred ml of the dissolution medium was used at 37°±0.1° C. at 100rpm. Test capsule was put into a stainless sinker. After being enclosed in the sinker, the capsule was put into 900 ml of the 1st solution maintained at 37° C. The shaft was then placed in the fluid at 37° C. and the paddle was rotated at 100 rpm. To simulate the transit from gastric to intestinal pH, samples of 1st solution were replaced one hour later with the 2nd solution. The release profile of 5-FU was estimated by measuring the appearance of the drug by HPLC method. The cisplatin concentration was estimated by analyzing for platinum by atomic absorption spectrophotometry.

The conditions of data set [4]: dog, po.
Text: FIG. 18. Relationship between the thickness of EC layer of intestinal pressure controlled-release capsules and plasma fluorescein Tmax after oral administration to beagle dogs.
Details of data set [5]: species or system beagle dog. The note with it: dog, in vivo. As for the experimental part: The peak time, Tmax, when the plasma 5-FU level reaches to its maximum level is used as a parameter for estimating the release time of drug in the GI tract after oral administration. […] According to the report of Anderson ([…]), for the dog, gastric emptying is 3-5 h, small intestine transit time is about 1 h and colonic transit time is 10-12 hr. On the other hand, Mizuta et al. (1989) reported that the small intestinal transit time in beagle dog is 3.0±1.4 h. Additionally, the transit of the test preparation was monitored by a direct examination of the dog intestine by abdominal incision. In this study, the delivery of these preparations to the ascending colon at 4 hr after administration was confirmed. In addition, to estimate the colon arrival time in the beagle dogs, sulfasalazine which is a pro-drug of 5ASA and is cleaved to sulfapyridine and 5ASA in the colon by azo-reductase of intestinal microflora was administered to the dogs. Sulfapyridine starts to appear in the blood circulation at 4 hr after administration and reaches to its maximum concentration at 10-12 hr (J. Pharm. Pharmacol., 1995 in press). Accordingly, colon arrival time has been estimated to be 4 hr in our beagle dogs.

Data set [6] concerns blood total leukocyte (BTL) count. Nature of the data set: Pharmacodynamic study: blood total leukocyte (BTL) count after oral administration of rhG-CSF capsule to beagle dogs. It counts as in vivo, beagle dog. The settings on record: 25 μg/kg oral, three dogs. As for the experimental part: The test capsule, a preparation of Example 6, was orally administered to beagle dogs. At 30 min before drug administration, 0.6 ml of the blank blood sample was removed from the dog jugular vein. After administration, 0.1 ml of blood samples were collected at 10, 24, 36, 48, 60, 72 and 96 h. […] of the blood sample was used for blood total leukocyte (BTL) count. The BTL count was performed by microcell counter CC-180A (Sysmex, Toa Medical Electronics). The BTL count is expressed as a relative value, which is obtained by the respective control BTL count, namely the pre-dosing BTL count.

For the molecule `Nc1ccc(S(=O)(=O)Nc2ccccn2)cc1` [Sulfapyridine, sulfapyridine], the “time at which sulfapyridine starts to appear in the blood circulation” value in data set [1] is 4 h.
On to `N.N.[Cl][Pt][Cl]` [cisplatin], for which the “serum cisplatin levels, effect of pore number” value in data set [2] (pore number 20 to 30, carbopol 25 mg (FIG. 4)) is on record as “significantly increases as the pore number increases from 20 to 30”. In addition, in data set [2] (pore number 30 (FIG. 5)), the “serum cisplatin level vs. time curves, effect of amount of gel-forming polymer” value is “there is not a significant difference”. The “release rate of cisplatin, effect of pore number” value is listed as “the pore number did not affect the release rate of cisplatin any more” in data set [3] (gel-forming polymer 100 mg); “the release rate of cisplatin increases” in data set [3] (pore number 20 to 30, gel-forming polymer 25 mg and 50 mg). In data set [3] (pore number 20), the “effect of increase of the amount of gel-forming polymer on release” value is “the effect of the increase of the amount of gel-forming polymer did not appear”. The “release rate of cisplatin, effect of amount of gel-forming polymer” value in data set [3] (pore number 30 and 60, gel-forming polymer 25 mg to 50 mg) is on record as “the release rate of cisplatin decreases”. Besides, in data set [3] (pore number 30 to 60, gel-forming polymer 25 mg and 50 mg), the “prolonged effect of pore number” value is reported as “prolonged effect was not observed”.
On to `O=C1OC2(c3ccc(O)cc3Oc3cc(O)ccc32)c2ccccc21` [fluorescein], for which, in data set [4], the “capsule thickness vs. in vivo Tmax” value was “good corelationship between the capsule thickness and the in vivo Tmax”.
The molecule `O=C(O)c1cc(/N=N/c2ccc(S(=O)(=O)Nc3ccccn3)cc2)ccc1O` [sulfasalazine] registered a colon arrival time in data set [5] of 4 h.

B1: rhG-CSF: recombinant human granulocyte colony-stimulating factor, given orally as the capsule of Example 6 (protein, UniProt P09919 31-207, looked up)
Granulocyte …: TPLGPASSLPQSFLLKCLEQVRKIQGDGAALQEKLVSECATYKLCHPEELVLLGHSLGIPWAPLSSCPSQALQLAGCLSQLHSGLFLYQGLLQALEGISPELGPTLDTLQLDVADFATTIWQQMEELGMAPALQPTQGAMPAFASAFQRRAGGVLVASHLQSFLEVSYRVLRHLAQP
With B1, in data set [6], the “BTL count relative to pre-dose level” value is on record as 1.3 folds of pre-dose level and the “time at which BTL count starts to increase” value was 10 h. Also, the “BTL count return to the normal level” value in data set [6] (end of the experiment) was found to be 96 h.
